Results from patent US20130204017A1, “GLYCERYL ASCORBIC ACID ACYLATED DERIVATIVE OR ITS SALT, PRODUCTION METHOD THEREOF, AND COSMETICS” (SEIWA KASEI COMPANY, LIMITED, priority 2012, published 2013).

What was measured:
B16 melanoma 4A5 cell = assay: Melanin production suppressing evaluation test (theophylline-induced melanine production); type: cell-based, mouse; details: sample at a concentration of 100 μl or less; 0.2 mM theophylline; culturing 3 days
Description: As a test for a whitening effect, evaluation of the action of B16 melanoma 4A5 cell on theophylline-induced melanine production was carried out on a glyceryl ascorbic acid acylated derivative of the present invention, according to the following procedure. The same evaluations were carried out also on arbutin, ascorbic acid, sodium ascorbate, magnesium ascorbyl phosphate, glucosyl ascorbic acid, and 3-O-glyceryl ascorbic acid and 2-O-glyceryl ascorbic acid obtained in the Synthesis Examples mentioned above, as comparison.
(1) B16 mouse melanoma 4A5 strain was sowed onto a 48-well plate at a cell density of 2.0×10^4 cells/well. (2) Culturing was performed for 24 hours with Dulbecco's Modified Eagle's medium (manufactured by SIGMA. Hereinafter, abbreviated as D-MEM) containing 10% fetal bovine serum (manufactured by Roshe Diagnostics). Then, it was changed to 0.2 mM theophylline and a 10% fetal bovine serum-containing D-MEM which contains a sample of given concentration. (3) After culturing for 3 days in the co-existence of a sample, the medium was removed using an aspirator. Then, after distilled water was added, cells were broken by an ultrasonic wave. (4) Thereafter, the amount of protein was determined using BCA protein assay kit (manufactured by PIERCE), and the produced amount of melanine was measured by an alkali solubilizing method described later. To the cell-destructed solution was added sodium hydroxide so as to give a final concentration of 2 mol/L and the mixture was dissolved by heating (60° C., 15 minutes), then, the absorbance at 450 nm was measured using a micro plate reader. The melanine amount was calculated from a calibration curve made using synthetic melanine (SIGMA) as a standard. The melanine amount per unit protein was calculated by dividing the melanine amount by the protein amount. (5) The melanine production suppressing rate was calculated according to the following formula.
Melanine production suppressing rate(%)=[1−(A−B)/(C−B)]×100
[wherein, A represents the melanine amount per unit protein (g/g) in adding a sample, B represents the melanine amount per unit protein (g/g) in the normal group, and C represents the melanine amount per unit protein (g/g) in the control group.]
The normal group means the case where neither theophylline nor sample was added.(that is; theophylline(−) and sample(−))
The control group means the case where neither sample was not added but theophylline was added.(that is; theophylline (+) and sample(−))
In the following Tables, the melanine production suppressing rate in applying a sample at a concentration of […] or less is expressed as described below.

[1] = system: Normal human dermal fibroblasts; assay: Collagen production evaluation test (Sircol collagen assay); type: cell-based; details: sample 100 μM, cultured 48 hours; for activity at 100 µM: Homo sapiens, Fibroblast, read-out: Collagen production promoting effect (collagen production amount, control group is 100%)
Description: The collagen production promoting effects of the glyceryl ascorbic acid acylated derivatives of the present invention were evaluated, according to the following procedure. As comparison, arbutin, ascorbic acid, sodium ascorbate, magnesium ascorbyl phosphate, glucosyl ascorbic acid, 3-O-glyceryl ascorbic acid and 2-O-glyceryl ascorbic acid were used like in Test Example 1.
Normal human dermal fibroblasts were regulated with a 10% (v/v) fetal bovine serum (manufactured by Invitrogen)-containing D-MEM so as to give a cell density of 2.5×10^4 cells/well, then, pre-incubation for 24 hours was performed on a 96-well plate. After the medium was removed, a sample regulated with a 5% (v/v) fetal bovine serum-containing D-MEM to a concentration of 100 μM was added to each well, then, cultured for 48 hours at 37° C. and 5% CO2. After completion of culturing, the amount of free collagen was measured using Sircol collagen assay kit (manufactured by Biocolor).
The collagen production amount in applying a sample at a concentration of 100 μM is obtained as % value when the control group is 100%, and the results are shown in Table 4 based on the following standard.

[2] = In vitro moisturizing test (amount of retained water); type: physicochemical; details: 25° C., 65% RH to equilibrium, then 25° C., 20% RH for 24 hours
Description: (§1) An in vitro moisturizing test and an in vivo moisturizing test of the glyceryl ascorbic acid acylated derivatives of Examples 1 to 6 were carried out according to the following manner. For comparison, sodium ascorbate, magnesium ascorbyl phosphate, glucosyl ascorbic acid, 3-O-glyceryl ascorbic acid, 2-O-glyceryl ascorbic acid and 3-O-cetyl ascorbic acid were used.
A sample shown later was dried, and the dried sample was spread in an amount of about 0.4 g (this weight is represented by W0) on the bottom of a weighing bottle (diameter: 3.6 cm, height excluding lid: 1.8 cm) so as to give uniform thickness. The sample contained in the weighing bottle was allowed to stand still in a constant humidity and constant temperature vessel (ENVIROS KCL-1000, EYELA) under environments of 25° C. and 65% RH. The weight was measured periodically, waiting until sufficient moisture absorption to attain equilibrium of weight increase (about 48 hours). Thereafter, the sample was transferred to under environments of 25° C. and 20% RH (in sealed vessel containing a saturated CH3COOK aqueous solution filled in the bottom part). From the weight after 24 hours (this weight is represented by W1), the amount of retained water per 1 g of the dried sample was calculated according to the following formula.
From the water amount thus calculated, the moisturizing effect was judged based on the following judging criterion, and the results are shown in Table 8.
Δ: 15 mg or more and less than 35 mg

[3] = In vivo moisturizing test (stratum corneum water content, forearm); details: 5 g in 100 mL water, pH 7, 0.3 mL on forearm, 10 subjects
Description: as §1
Each test sample (5 g) was dissolved in 100 mL of water, and pH thereof was adjusted to 7 with a dilute sodium hydroxide aqueous solution or a dilute hydrochloric acid aqueous solution to prepare a sample solution. A paper filter of 1 cm×1 cm was placed on a forearm portion and 0.3 mL of the prepared sample solution was applied on this, and covered and fixed by a polyamide film. Then, 3 hours and 8 hours after, the stratum corneum water content at the sample-applied portion was measured using CORNEOMETER CM825 (manufactured by Integral Corporation). The test was carried out with 10 subjects, and evaluated according to the following criterion (evaluation standard).
3: Stratum corneum water content increased by 15% or more, based on the water content before sample application
2: Stratum corneum water content increased by 0 to less than 15%, based on the water content before sample application
1: There was no change or there was a reduction in stratum corneum water content, before and after sample application.
Based on the evaluation results, classification was set as described below.
◯: Total points of 10 subjects is 25 or more
Δ: Total points of 10 subjects is 16 to 24
x: Total points of 10 subjects is 15 or less

[4] = Stability test: odor and color change of 2% aqueous solution stored at 50° C.; type: physicochemical; details: pH7, ten panelists
Description: Using 2-O-glyceryl-6-O-octanoyl ascorbic acid obtained in Example 2 and 2-O-glyceryl-6-O-octadecanoyl ascorbic acid obtained in Example 9, an evaluation was made on the stability of odor and color change when stored at 50° C. for 4 weeks, according to the following procedure. For comparison, magnesium ascorbyl phosphate, ascorbic acid and 3-O-glyceryl ascorbic acid were used.
Aqueous solutions (2%) of various test samples were adjusted to pH7 with a dilute sodium hydroxide aqueous solution or a dilute hydrochloric acid aqueous solution, and charged into 50 mL screw tubes. The tubes were sealed and stored at 50° C. for 4 weeks. The odor and degree of color change immediately after preparation, after storage for two weeks and after storage for four weeks were evaluated by ten panelists based on the following methods and according to the following criterion.
3: almost no change as compared with that immediately after preparation
2: color change is observed as compared with that immediately after preparation
1: intense color change is observed as compared with that immediately after preparation
Based on the evaluation results, classification was conducted as shown below.
◯: total point of 10 panelists is 25 or more
Δ: total point of 10 panelists is 16 to 24
x: total point of 10 panelists is 15 or less

[5] = storage period 0 (immediately after preparation)

Row | Structure (SMILES) | Whitening effect (melanine production suppressing rate) (B16 melanoma 4A5 cell) | activity at 100 µM [1] [%] | in vitro moisturizing effect (amount of retained water per 1 g of the dried sample) [2] | in vivo moisturizing (stratum corneum water content) after 3 hours [3] | in vivo moisturizing (stratum corneum water content) after 8 hours [3] | Color change ([4]; storage 2 weeks at 50° C.) | Odor ([4]; storage 2 weeks at 50° C.) | Color change ([4]; storage 4 weeks at 50° C.) | Odor ([4]; storage 4 weeks at 50° C.) | Color change [4, 5] | Odor [4, 5] | Collagen production promoting effect (collagen production amount, control group is 100%) [1]
1 | O=C1O[C@H]([C@@H](O)CO)C(O)=C1OCC(O)CO (some centres unmarked) [2-O-glyceryl ascorbic acid, reference compound] | Δ (Less than 30%) | 100 to 200 | ◯ (35 mg or more) | Δ (Total points of 10 subjects is 16 to 24) | Δ (Total points of 10 subjects is 16 to 24) | – | – | – | – | – | – | –
2 | O=C1O[C@H]([C@@H](O)CO)C(OCC(O)CO)=C1O (some centres unmarked) [3-O-glyceryl ascorbic acid] | Δ (Less than 30%) | 100 to 200 | ◯ (35 mg or more) | – | Δ (Total points of 10 subjects is 16 to 24) | ◯ (total point of 10 panelists is 25 or more) | ◯ (total point of 10 panelists is 25 or more) | Δ (total point of 10 panelists is 16 to 24) | ◯ (total point of 10 panelists is 25 or more) | ◯ (total point of 10 panelists is 25 or more) | ◯ (total point of 10 panelists is 25 or more) | –
3 | CCCCCCCC(=O)OC[C@H](O)[C@H]1OC(=O)C(OCC(O)CO)=C1O (some centres unmarked) [Example 2, 2-O-glyceryl-6-O-octanoyl ascorbic acid] | ⊚ (50% or more) | 100 to 200 | – | ◯ (Total points of 10 subjects is 25 or more) | ◯ (Total points of 10 subjects is 25 or more) | ◯ (total point of 10 panelists is 25 or more) | ◯ (total point of 10 panelists is 25 or more) | ◯ (total point of 10 panelists is 25 or more) | ◯ (total point of 10 panelists is 25 or more) | ◯ (total point of 10 panelists is 25 or more) | ◯ (total point of 10 panelists is 25 or more) | –
4 | CCCCCCCCCCCCCCCC(=O)OC[C@H](O)[C@H]1OC(=O)C(OCC(O)CO)=C1O (some centres unmarked) [Example 3, 2-O-glyceryl-6-O-hexadecanoyl ascorbic acid] | ⊚ (50% or more) | 100 to 200 | – | ◯ (Total points of 10 subjects is 25 or more) | ◯ (Total points of 10 subjects is 25 or more) | – | – | – | – | – | – | –
5 | CCCCCCCC(=O)OCC(O)COC1=C(O)[C@@H]([C@@H](O)COC(=O)CCCCCCC)OC1=O (some centres unmarked) [Example 4, 2-O-(3′-O-octanoylglyceryl)-6-O-octanoyl ascorbic acid] | ⊚ (50% or more) | 100 to 200 | – | ◯ (Total points of 10 subjects is 25 or more) | ◯ (Total points of 10 subjects is 25 or more) | – | – | – | – | – | – | –
6 | CCCCCCCCCCCC(=O)OC[C@H](O)[C@H]1OC(=O)C(OCC(O)CO)=C1O (some centres unmarked) [Example 5, 2-O-glyceryl-6-O-dodecanoyl ascorbic acid] | ⊚ (50% or more) | 100 to 200 | – | ◯ (Total points of 10 subjects is 25 or more) | ◯ (Total points of 10 subjects is 25 or more) | – | – | – | – | – | – | –
7 | CCCCC(CC)C(=O)OC[C@H](O)[C@H]1OC(=O)C(OCC(O)CO)=C1O (some centres unmarked) [Example 6, 2-O-glyceryl-6-O-(2-ethylhexanoyl) ascorbic acid] | ⊚ (50% or more) | 100 to 200 | – | ◯ (Total points of 10 subjects is 25 or more) | ◯ (Total points of 10 subjects is 25 or more) | – | – | – | – | – | – | –
8 | O=C1O[C@H]([C@@H](O)CO)C(O)=C1O[C@H]1O[C@H](CO)[C@@H](O)[C@H](O)[C@H]1O [Glucosyl ascorbic acid, reference compound] | Δ (Less than 30%) | – | Δ (15 mg or more and less than 35 mg) | – | – | – | – | – | – | – | – | + (100 to 200%)
